Among the data in patent US8080657B2, “Compounds of reverse turn mimetics and the use thereof” (Choongwae Pharma Corporation, priority 2008, dated 2011) are IC50 and GI50 values, retold here.

For experiment [1], the target named is T1, cDNA-expressed human hepatic CYP3A4 (Homo sapiens, UniProt P08684).
T1 construct: purchased BD Gentest 456202
The experiment in a line: P450 CYP3A4 inhibitory activity screening (BFC substrate, fluorescence). It is filed as biochemical. The conditions noted are these: P450 CYP3A4 inhibitory activity screening, fluorescent assay; read-out: CYP3A4 inhibition, IC50 (μM) fluorescent assay.

The subject of another experiment is MV-4-11 cells. Briefly: Cell growth inhibition assay on AML cancer cells (CellTiter 96). It is filed as cell-based. The conditions noted are these: Homo sapiens, MV4-11; cell growth inhibition on AML cancer cells, MV-4-11; read-out: MV-4-11, GI50. As for the experimental part:
The lower GI50 value means the higher inhibition activity.
Cell Growth Inhibition Activity on AML Cancer Cells (Cell Growth Inhibition Assay)
Cell growth Inhibition assay was performed to investigate the rate of inhibition of cell proliferation by the test compounds. MV-4-11 (human, Acute Myeloid Leukemia cell line) cells were cultured in Iscove's modified Dulbecco's medium (IMDM) including 10% fetal bovine serum (FBS), 1× penicillin/streptomycin (10,000 units/ml Penicillin, […] Streptomycin in 0.85% NaCl). MV-4-11 cells were harvested with IMDM medium and 5×10^4 cells/well were transferred to each well of 96 well culture plates (Nunc, #167008). The test compounds were treated with the serial dilution and duplicated for each concentration. For the serial dilution, the test compounds were repeatedly diluted with the same volume of media onto 96-well assay block (costar, #3956). After the dilution, each compound was added to each well. The background absorbance was also measured during the test compounds treatment by adding the IMDM media in replacement of test compound to the negative control plate. The plates were incubated for 3 days (72 hours) at 37° C. in the humidified incubator containing 5% CO2. On the last day, 20 μL of CellTiter 96 Aqueous One Solution (Promega #G3581) was added to the culture in each well and the plates were incubated for a few hours at 37° C. in the humidified incubator containing 5% CO2. After the incubation, the absorbance of each cell was measured at 490 nm using an EnVision (Perkinelmer, USA). The GI50 values were calculated using a Prism 3.0 program.

T1 sequence (P08684 whole entry): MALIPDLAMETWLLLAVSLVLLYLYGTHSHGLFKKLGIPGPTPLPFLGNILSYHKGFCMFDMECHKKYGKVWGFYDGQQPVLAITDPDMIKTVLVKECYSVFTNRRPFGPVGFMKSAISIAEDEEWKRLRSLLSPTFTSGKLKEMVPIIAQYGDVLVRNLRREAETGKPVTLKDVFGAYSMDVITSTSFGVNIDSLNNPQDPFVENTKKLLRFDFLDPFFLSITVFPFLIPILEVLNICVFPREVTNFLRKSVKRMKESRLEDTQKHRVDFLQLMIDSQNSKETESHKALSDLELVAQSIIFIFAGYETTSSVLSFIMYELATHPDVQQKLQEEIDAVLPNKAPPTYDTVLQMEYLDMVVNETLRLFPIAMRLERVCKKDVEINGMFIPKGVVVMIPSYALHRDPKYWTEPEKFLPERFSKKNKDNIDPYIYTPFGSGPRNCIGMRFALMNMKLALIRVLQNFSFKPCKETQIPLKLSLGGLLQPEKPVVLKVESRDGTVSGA

With `C=CCN1CC(=O)N2[C@@H](Cc3ccc(O)cc3)C(=O)N(Cc3cccc(C(=O)NCCOC)c3)C[C@@H]2N1C(=O)NCc1ccccc1` [compound 38], the IC50 in experiment [1] worked out at 34.6 µM. In addition, the GI50 in the experiment on MV-4-11 cells is 0.18 µM.

Broadly, the IC50 is the concentration at which inhibition is half-maximal. As a reminder, the GI50 is the concentration at which growth is held to half of that of the control.
